Measured values: publication PMC9268102, “Design, Synthesis and Biological Evaluation of 1,3,5-Triazine Derivatives Targeting hA1 and hA3 Adenosine Receptor” (Molecules, 2022)

Tests used:
Format in all cases: cell-based
hA1 AR [1] = molecular target: T1, hA1 AR (Homo sapiens, UniProt P30542); experiment: cAMP accumulation assay, antagonist mode, hA1 AR; conditions: in presence of NECA, CHO-A1 cells
T1 construct: host or cells: CHO-A1 (CHO cells expressing hA1 AR)
T1 sequence (P30542 1-326): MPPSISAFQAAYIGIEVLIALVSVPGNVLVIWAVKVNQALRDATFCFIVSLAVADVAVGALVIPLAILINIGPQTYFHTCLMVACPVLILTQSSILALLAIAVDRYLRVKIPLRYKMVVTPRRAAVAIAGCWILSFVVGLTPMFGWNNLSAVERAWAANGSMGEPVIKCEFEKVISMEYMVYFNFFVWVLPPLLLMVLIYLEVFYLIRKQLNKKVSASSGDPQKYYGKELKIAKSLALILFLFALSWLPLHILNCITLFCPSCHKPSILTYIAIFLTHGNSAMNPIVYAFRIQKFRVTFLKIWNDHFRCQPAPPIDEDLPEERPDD
Text: (§1) To determine whether 1,3,5-triazine scaffold derivatives behave as agonists or antagonists, we performed cAMP accumulation assays with 11a and 11b at hA1 and hA3 AR. We confirmed whether the test compounds behave as antagonists by measuring the concentration change in cAMP in the presence of a full agonist 5-N-ethylcarboxamido adenosine (NECA) using antagonist mode assays. We also confirmed whether the test compounds could behave as agonists by comparing the relative percentage activation of NECA using agonist mode assays.
(§2) hA1 and hA3 AR functional experiments were carried out in CHO-A1 and CHO-A3#18 cell line, respectively. The day before the assay, the cells were seeded on the 96-well culture plate (Falcon 353072). The cells were washed with wash buffer (Nutrient Mixture F12 Ham’s (Sigma N6658) for hA1 AR; Dulbecco’s modified eagle’s medium nutrient mixture F-12 ham (Sigma D8062) for hA3 AR; 25 mM Hepes; pH = 7.4). Wash buffer was replaced by incubation buffer (Mixture F12 Ham’s (Sigma N6658) for hA1 AR; Dulbecco’s modified eagle’s medium nutrient mixture F-12 ham (Sigma D8062) for hA3 AR; 25 mM Hepes, 20 µM Rolipram (Sigma R6520); pH = 7.4). […] After incubation, the amount of cAMP was determined using cAMP Biotrak Enzyme immunoassay (EIA) System Kit (GE Healthcare RPN225).

hA1 AR [2] = molecular target: T1, hA1 AR; experiment: cAMP accumulation assay, agonist mode, hA1 AR; conditions: relative to NECA, CHO-A1 cells
Text: as §1
(§3) hA1 and hA3 AR functional experiments were carried out in CHO-A1 and CHO-A3#18 cell line, respectively. The day before the assay, the cells were seeded on the 96-well culture plate (Falcon 353072). The cells were washed with wash buffer (Mixture F12 Ham’s (Sigma N6658) for hA1 AR; Dulbecco’s modified eagle’s medium nutrient mixture F-12 ham (Sigma D8062) for hA3 AR; 25mM Hepes; pH = 7.4). Wash buffer was replaced by incubation buffer (Mixture F12 Ham’s (Sigma N6658) for hA1 AR; Dulbecco’s modified eagle’s medium nutrient mixture F-12 ham (Sigma D8062) for hA3 AR; 25 mM Hepes, 20 µM Rolipram (Sigma R6520); pH = 7.4). The cells were pre-incubated at 37 °C for 15 min. […] After incubation, the amount of cAMP was determined using cAMP Biotrak Enzyme immunoassay (EIA) System Kit (GE Healthcare RPN225).

hA3 AR [3] = molecular target: T2, hA3 AR (Homo sapiens, UniProt P0DMS8); experiment: cAMP accumulation assay, antagonist mode, hA3 AR; set-up: expressed in transfected cells; conditions: in presence of NECA, CHO-A3#18 cells
T2 sequence (P0DMS8 1-318): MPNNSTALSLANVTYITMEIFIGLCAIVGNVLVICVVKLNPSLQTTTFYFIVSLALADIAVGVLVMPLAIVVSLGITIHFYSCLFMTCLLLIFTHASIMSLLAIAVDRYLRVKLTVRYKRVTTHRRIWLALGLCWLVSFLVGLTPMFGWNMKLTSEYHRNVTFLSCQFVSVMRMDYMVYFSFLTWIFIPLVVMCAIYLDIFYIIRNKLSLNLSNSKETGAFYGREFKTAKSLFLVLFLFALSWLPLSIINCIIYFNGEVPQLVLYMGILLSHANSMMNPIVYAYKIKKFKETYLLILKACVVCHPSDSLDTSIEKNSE
Text: as §1, §2

hA3 AR [4] = molecular target: T2, hA3 AR; experiment: cAMP accumulation assay, agonist mode, hA3 AR; set-up: expressed in transfected cells; conditions: relative to NECA, CHO-A3#18 cells
Text: as §1, §3

NCI-H1299 cells = experiment: Cell viability (MTS) assay in NCI-H1299 cells; conditions: Homo sapiens, 48 h
Procedure: To test the effect of the compounds in terms of cell growth regulation in lung cancer cell lines such as A549 and NCI-H1299 cells, these cells were treated in 96-well plates for 48 h with the compounds at concentrations ranging from 0 μM to 100 μM. […] Therefore, we decided to perform an additional experiment with 9c.
A549 and NCI-H1299 cells were seeded in 96-well plates at a density of 1 × 10^5 cells per well for 24 h before being exposed to compounds at various concentrations. After 48 h of compound treatment, the CellTiter 96 AQueous One Solution Cell Proliferation Assay Kit (Promega, Madison, WI, USA) was used to conduct a cell viability assay. The cells were incubated with solution reagents for 2 h at 37 °C before being measured for absorbance at 490 nm using a Synergy HTX Multi-Mode microplate reader (BioTek Instruments, Inc., Winooski, VT, USA).

Percentage inhibition in antagonist mode, hA1 AR (hA1 AR [1]) | Percentage activation in agonist mode, hA1 AR (hA1 AR [2]) | Percentage inhibition in antagonist mode, hA3 AR (hA3 AR [3]) | Percentage activation in agonist mode, hA3 AR (hA3 AR [4]) | Structure (SMILES) | viability at 25 µM (NCI-H1299 cells)
60% | 23% | 88% | 6% | COc1ccc(Nc2nc(N)nc(-c3ccc(F)cc3)n2)cc1F [Compound 11b, N^2-(3-fluoro-4-methoxyphenyl)-6-(4-fluorophenyl)-1,3,5-triazine-2,4-diamine] | 
1% | 11% | 77% | 17% | COc1ccc(-c2nc(N)nc(Nc3ccc(OC)c(F)c3)n2)cc1 [Compound 11a, N^2-(3-fluoro-4-methoxyphenyl)-6-(4-methoxyphenyl)-1,3,5-triazine-2,4-diamine] | 
 |  |  |  | COc1cc(Nc2nc(N)nc(-c3ccc(O)cc3)n2)ccc1Cl [Compound 9c, 4-{4-amino-6-[(4-chloro-3-methoxyphenyl)amino]-1,3,5-triazin-2-yl}phenol] | 68.8%
